Results as given in EPA's aquatic toxicity sets.

test system: Tetrahymena pyriformis; assay: 48 h IGC50 (-log10 mol/L); higher = more toxic

Row | SMILES | 48 h IGC50 (-log10 mol/L)
1 | O=[N+]([O-])c1cc(F)cc(I)c1 | 4.09
2 | C/C=C/C=C/C=O | 3.74
3 | COC(=O)CC#N | 1.66
4 | C#CC(O)C(C)C (centres undefined) | 2.97
5 | CCOC(=O)c1ccc([N+](=O)[O-])cc1 | 3.71
6 | OC1CCCCC1 | 2.23
7 | COc1ccc(C(C)=O)cc1 | 2.87
8 | C1CSCCS1 | 2.89
9 | CCOc1ccc(O)cc1 | 3.01
10 | CCC(=O)OC(C)(C)C | 2.59
11 | C/C=C/C(=O)O | 2.46
12 | CCCCC1CCC(=O)O1 (centres undefined) | 2.62
13 | CCCCCCC#CC(=O)OCC | 4.38
14 | C=CCOC(C)=O | 3.48
15 | CCCCCCCCC(=O)OC | 4.04
16 | O=[N+]([O-])c1cc(O)ccc1Cl | 4.27
17 | Cc1ccc(CN)cc1 | 2.99
18 | Cc1cc(Br)cc(C)c1O | 4.16
19 | COc1cccc(C#N)c1 | 3.01
20 | COc1cccc(C=O)c1 | 3.23
21 | O=[N+]([O-])c1ccc(Br)cc1 | 3.38
22 | COC(=O)CC(=O)OC | 1.71
23 | O=C(O)CCBr | 2.96

Row | SMILES | 48 h IGC50 (-log10 mol/L)
24 | CCc1ccc(CO)cc1 | 3.07
25 | CCCCCN | 2.52
26 | CC(C)(CN)CO | 2.08
27 | CCC(=O)CC | 1.54
28 | OCc1ccc(F)cc1 | 2.38
29 | Cc1cc(Br)cc(Cl)c1O | 4.28
30 | CCCCCC(N)=O | 2.09
31 | CC(C)=CC=O | 3.09
32 | CCCC(=O)O | 2.43
33 | O=[N+]([O-])c1cnc(Cl)c([N+](=O)[O-])c1 | 5.64
34 | CCc1ccc([N+](=O)[O-])cc1 | 3.43
35 | C=CC(=O)CC | 4.52
36 | CCCCCCCCCCN | 5.06
37 | CC(C)=CCO | 1.76
38 | CCN(C)c1ccccc1 | 3.29
39 | ClC(Cl)c1ccccc1 | 3.11
40 | CC(C)CCC#N | 2.21
41 | c1ccc2nc3ccccc3nc2c1 | 4.4
42 | CCCOC(=O)c1ccccc1C(=O)OCCC | 3.98
43 | O=C(c1ccccc1)c1ccc(Br)cc1 | 4.26
44 | CCCCCCC(C)=O | 2.85
45 | CCOC(=O)C#Cc1ccccc1 | 4.67
46 | C=C(C=O)CCCC | 4.07

Row | SMILES | 48 h IGC50 (-log10 mol/L)
47 | CCC(=O)CC(=O)CC | 2.62
48 | CCOC(=O)c1ccc(C(C)(C)C)cc1 | 4.42
49 | CCC[N+](=O)[O-] | 2.01
50 | C#CC(O)CCCC (centres undefined) | 2.73
51 | CCCCCBr | 3.48
52 | CCOC(=O)C[C@@H](C)O | 1.47
53 | O=C(O)CCCCCCCCCCC(=O)O | 2.91
54 | N#CCc1ccc(Cl)cc1 | 3.66
55 | CC(=O)NC(C)(C)C | 1.84
56 | CCCCCCCCCCC#CCCO | 5.38
57 | O=[N+]([O-])c1ccc2ccccc2c1O | 4.36
58 | O=Nc1ccc(O)cc1 | 3.65
59 | CNCCO | 1.18
60 | Cc1c(C)c(O)c(C)c(C)c1O | 4.28
61 | O=[N+]([O-])c1ccc(F)c(Cl)c1 | 3.8
62 | c1cncnc1 | 1.25
63 | CCCOC(=O)c1ccccc1 | 3.42
64 | CCOC(=O)C(Br)C(=O)OCC | 5.21
65 | CCC#CC(=O)OCC | 3.82
66 | Oc1ccc(O)c(O)c1 | 3.44
67 | CCCCCCCCC(O)CO (centres undefined) | 3.76
68 | CCCCCCCS | 4.02
69 | CCOC(=O)C(C)CC (centres undefined) | 2.11
